Results on 22 molecules are retold here after patent EP2970215B1, “PYRROLIDINE DERIVATIVES, PHARMACEUTICAL COMPOSITIONS CONTAINING THEM, AND THEIR USE IN THERAPY” (AbbVie Deutschland GmbH & Co. KG, priority 2013, dated 2014).

Each structure is given as a SMILES string. Some results are limits rather than exact numbers.

For the test, the target named is T1, human GlyT1c transporter (Homo sapiens, UniProt P48067).
T1 construct: expressed in transfected cells; host or cells: CHO cells (recombinant; line hGlyT1c_5_CHO is named for the uptake assay)
T1 sequence (P48067 1-706): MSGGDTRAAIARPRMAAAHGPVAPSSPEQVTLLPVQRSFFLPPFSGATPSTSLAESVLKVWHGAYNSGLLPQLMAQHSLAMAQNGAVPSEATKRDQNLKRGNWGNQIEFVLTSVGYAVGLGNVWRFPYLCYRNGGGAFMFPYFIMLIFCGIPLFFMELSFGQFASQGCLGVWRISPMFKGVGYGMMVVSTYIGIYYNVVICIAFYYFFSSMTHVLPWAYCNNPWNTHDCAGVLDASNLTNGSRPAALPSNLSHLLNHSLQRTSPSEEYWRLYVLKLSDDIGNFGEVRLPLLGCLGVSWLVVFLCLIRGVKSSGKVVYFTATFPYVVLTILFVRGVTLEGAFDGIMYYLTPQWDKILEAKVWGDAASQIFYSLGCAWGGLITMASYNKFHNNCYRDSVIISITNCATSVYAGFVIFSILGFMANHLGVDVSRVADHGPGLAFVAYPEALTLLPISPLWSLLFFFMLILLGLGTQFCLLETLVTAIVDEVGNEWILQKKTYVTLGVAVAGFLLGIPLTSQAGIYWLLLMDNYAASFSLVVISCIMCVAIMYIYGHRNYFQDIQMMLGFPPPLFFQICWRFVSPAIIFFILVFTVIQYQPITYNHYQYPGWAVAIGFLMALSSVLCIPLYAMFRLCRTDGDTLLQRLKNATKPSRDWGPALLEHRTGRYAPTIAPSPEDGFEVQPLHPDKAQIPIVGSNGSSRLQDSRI
The test can be described thus: Radioligand binding assay using recombinant CHO cell membranes expressing human GlyT1. The settings on record: radioligand binding to human GlyT1c transporter-expressing membranes. The text has this:
2. Radioligand binding assays using recombinant CHO cell membranes expressing human GlyT1: […]
For `Cn1cnc(S(=O)(=O)N2C[C@@H](Nc3cccc(C(F)(F)F)n3)[C@H](c3cccc(F)c3)C2)c1` (relative stereo) [Example 195, N-{trans-4-(3-fluorophenyl)-1-[(1-methyl-1H-imidazol-4-yl)sulfonyl]pyrrolidin-3-yl} -6-(trifluoromethyl)pyridin-2-amine], the Ki (commonly the dissociation constant of the complex between target and ligand, obtained from inhibition or displacement) was at most 10 µM.

With `Cn1cnc(S(=O)(=O)N2C[C@@H](Nc3ccccc3)[C@H](c3cccc(F)c3)C2)c1` (relative stereo) [Example 185, trans-4-(3-fluorophenyl)-1-[(1-methyl-1H-imidazol-4-yl)sulfonyl]-N-phenylpyrrolidin-3-amine], the Ki is at most 10 µM.

With `Cn1cnc(S(=O)(=O)N2C[C@@H]([C@@H]3CCCOC3)[C@H](Nc3ccc(F)c(Cl)c3)C2)c1` (mixture of isomers) [Example 789, Trans-N-(3-chloro-4-fluorophenyl)-1-[(1-methyl-1H-imidazol-4-yl)sulfonyl]-4-[(3S)-tetrahydro-2H-pyran-3-yl]pyrrolidin-3-amine], the Ki is at most 1 µM.

As to `Cn1cnc(S(=O)(=O)N2CC(c3ccc(F)cc3)C(c3ccccc3Cl)C2)c1` (stereo not shown) [Example 339, 4-{[3-(2-chlorophenyl)-4-(4-fluorophenyl)pyrrolidin-1-yl]sulfonyl}-1-methyl-1H-imidazole], the Ki was at most 10 µM.

Consider `Cn1cnc(S(=O)(=O)N2C[C@@H](Nc3ccc(F)cc3)[C@H](c3cccc(F)c3)C2)c1` (relative stereo) [Example 187, trans-4-(3-fluorophenyl)-N-(4-fluorophenyl)-1-[(1-methyl-1H-imidazol-4-yl)sulfonyl]pyrrolidin-3-amine], for which the inhibitory constant (Ki) is at most 10 µM.

Take `Cn1cnc(S(=O)(=O)N2C[C@@H](CNc3ccc(Cl)c(OC(F)(F)F)c3)[C@H](c3ccc(F)cc3)C2)c1` (relative stereo) [Example 377, 4-chloro-N-({trans-4-(4-fluorophenyl)-1-[(1-methyl-1H-imidazol-4-yl)sulfonyl]pyrrolidin-3-yl}methyl)-3-(trifluoromethoxy)aniline]: the Ki was at most 1 µM.

With `Cn1cnc(S(=O)(=O)N2C[C@@H](Nc3ccncc3)[C@H](c3cccc(F)c3)C2)c1` (relative stereo) [Example 191, N-{trans-4-(3-fluorophenyl)-1-[(1-methyl-1H-imidazol-4-yl)sulfonyl]pyrrolidin-3-yl}pyridin-4-amine], the Ki was at most 10 µM.

Turning to `Cn1cnc(S(=O)(=O)N2C[C@@H](Nc3cccc(C(F)(F)F)c3)[C@H](c3ccccn3)C2)c1` (relative stereo) [Example 344, trans-1-[(1-methyl-1H-imidazol-4-yl)sulfonyl]-4-(pyridin-2-yl)-N-[3-(trifluoromethyl)phenyl]pyrrolidin-3-amine], the inhibition constant (Ki) was at most 0.1 µM.

As for `O=C(N[C@@H]1CN(S(=O)(=O)CC2CC2)C[C@H]1c1ccccc1)c1cc(Cl)cc(Cl)c1` (relative stereo) [Example 129, 3,5-dichloro-N-{trans-1-[(cyclopropylmethyl)sulfonyl]-4-phenylpyrrolidin-3-yl}benzamide], the Ki was over 10 µM.

As to `Cn1cnc(S(=O)(=O)N2C[C@H](NCc3scnc3-c3ccccc3)[C@@H](c3ccccc3)C2)c1` [Example 430, (3R,4S)-1-[(1-methyl-1H-imidazol-4-yl)sulfonyl]-4-phenyl-N-[(4-phenyl-1,3-thiazol-5-yl)methyl]pyrrolidin-3-amine], the Ki was over 10 µM.

As to `Cn1cnc(S(=O)(=O)N2C[C@@H](COc3cccc(C(F)(F)F)c3Cl)[C@H](c3ccc(F)cc3)C2)c1` (relative stereo) [Example 250, 4-{[trans-3-{[2-chloro-3-(trifluoromethyl)phenoxy]methyl}-4-(4-fluorophenyl)pyrrolidin-1-yl]sulfonyl}-1-methyl-1H-imidazole], the Ki was at most 10 µM.

`CCCNC(=O)[C@@H]1CN(S(=O)(=O)c2cn(C)cn2)C[C@H]1c1ccc(F)cc1` [Example 580, (3S,4R)-4-(4-fluorophenyl)-1-[(1-methyl-1H-imidazol-4-yl)sulfonyl]-N-propylpyrrolidine-3-carboxamide]: the Ki was at most 1 µM.

In the case of `Cn1cnc(S(=O)(=O)N2C[C@@H](Nc3ccc(Cl)c(C#N)c3)[C@H](c3ccccc3)C2)c1` (relative stereo) [Example 79, 2-chloro-5-({trans-1-[(1-methyl-1H-imidazol-4-yl)sulfonyl]-4-phenylpyrrolidin-3-yl}amino)benzonitrile], the Ki was at most 1 µM.

For the molecule `N#Cc1ccccc1S(=O)(=O)N1C[C@@H](Nc2cccc(Cl)c2)[C@H](c2ccccc2)C1` (relative stereo) [Example 528, 2-({Trans-3-[(3-chlorophenyl)amino]-4-phenylpyrrolidin-1-yl}sulfonyl)benzonitrile], the Ki is over 10 µM.

As for `Cn1cnc(S(=O)(=O)N2C[C@@H](C(=O)NCC3CC3)[C@H](c3ccc(F)cc3)C2)c1` [Example 586, (3S,4R)-N-(cyclopropylmethyl)-4-(4-fluorophenyl)-1-[(1-methyl-1H-imidazol-4-yl)sulfonyl]pyrrolidine-3-carboxamide], the inhibition constant Ki was at most 1 µM.

Turning to `Cc1csc(CN[C@H]2CN(S(=O)(=O)c3cn(C)cn3)C[C@@H]2c2ccccc2)n1` [Example 454, (3R,4S)-1-[(1-methyl-1H-imidazol-4-yl)sulfonyl]-N-[(4-methyl-1,3-thiazol-2-yl)methyl]-4-phenylpyrrolidin-3-amine], the Ki was at most 10 µM.

Turning to `Cn1cnc(S(=O)(=O)N2C[C@@H](Nc3ccccc3Cl)[C@H](c3ccccc3)C2)c1` (relative stereo) [Example 73, trans-N-(2-chlorophenyl)-1-[(1-methyl-1H-imidazol-4-yl)sulfonyl]-4-phenylpyrrolidin-3-amine], the Ki was at most 10 µM.

On to `Cn1cnc(S(=O)(=O)N2C[C@@H](C(=O)Nc3cccc(C(F)(F)F)c3Cl)[C@H](c3ccc(F)cc3)C2)c1` (relative stereo) [Example 272, Trans-N-[2-chloro-3-(trifluoromethyl)phenyl] -4-(4-fluorophenyl)-1 - [(1-methyl-1H-imidazol-4-yl)sulfonyl]pyrrolidine-3-carboxamide], for which the Ki was at most 1 µM.

Consider `CCCCCC(=O)N[C@H]1CN(S(=O)(=O)c2cn(C)cn2)C[C@@H]1c1ccccc1` [Example 550, N-{(3R,4S)-1-[(1-methyl-1H-imidazol-4-yl)sulfonyl]-4-phenylpyrrolidin-3-yl}hexanamide], for which the Ki was at most 10 µM.

Consider `Cn1cnc(S(=O)(=O)N2C[C@@H](COc3ccc(C(F)(F)F)cc3Cl)[C@H](c3ccc(F)cc3)C2)c1` (relative stereo) [Example 294, 4-{[trans-3-{[2-chloro-4-(trifluoromethyl)phenoxy]methyl}-4-(4-fluorophenyl)pyrrolidin-1-yl]sulfonyl}-1-methyl-1H-imidazole], for which the Ki is at most 0.01 µM.

Turning to `Cn1cnc(S(=O)(=O)N2C[C@@H](Nc3ccc(F)c(OC(F)(F)F)c3)[C@H](C3CCCCO3)C2)c1` (stereo partly drawn) [Example 741, (3S,4R)-N-[4-fluoro-3-(trifluoromethoxy)phenyl]-1-[(1-methyl-1H-imidazol-4-yl)sulfonyl]-4-(tetrahydro-2H-pyran-2-yl)pyrrolidin-3-amine], the Ki is at most 0.1 µM.

In the case of `CCCCC(=O)N[C@H]1CN(S(=O)(=O)c2cn(C)cn2)C[C@@H]1c1ccccc1` [Example 549, N-{(3R,4S)-1-[(1-methyl-1H-imidazol-4-yl)sulfonyl]-4-phenylpyrrolidin-3-yl}pentanamide], the Ki is at most 10 µM.
